# Test results: patent US11974976B2, “Animal feeds and feed premixes containing betaine hydrochloride and a phytase” (Rural Chemical Industries (AUST) PTY LTD, priority 2013, dated 2024)
# Counter-ions that a name gives are not always drawn. Marks after values point to notes of the source that are not given here.
# What was measured:
# Assay type in all cases: in vivo, broiler chicks
# [1] = tested on: male Ross 308 chicks; assay: Bone mineralisation (percentage toe ash); conditions: phytase 500 FTU/kg, betaine 2.75 g/kg
# Method: (§1) The composition and nutrient specifications of the three basal starter (1-16 days post-hatch) and finisher (17-37 days post-hatch) diets are shown in Table 1. An NSP-degrading enzyme (Econase XT) was included across all the wheat-based diets to reflect standard practice and the finisher diets contained 20 g/kg Celite as an acid insoluble ash dietary marker. The starter diets were fed as mash, while the finisher diets were steam-pelleted at a conditioning temperature of 85° C. The NC1 diets were the ‘phytase-modified’ diets with formulated with reductions of 1.4 g/kg Ca and 1.5 g/kg P in the starter diets, which mainly stemmed from the elimination of dicalcium phosphate. The corresponding reductions in the finisher diets were 1.2 g/kg Ca and 1.4/kg P. The NC2 diets were the ‘betaine-modified’ diets in which energy density, methionine and choline levels were reduced mainly by lower inclusion levels of canola oil and synthetic methionine and the elimination of choline chloride relative to the PC diets. The energy densities were reduced from 12.55 to 12.24 MJ/kg in the starter diets and from 12.97 to 12.66 MJ/kg in the finisher diets. Methionine levels were reduced from 4.44 to 3.19 g/kg in the starter diets and from 4.18 to 2.93 g/kg in the finisher diets. Exogenous phytase (Quantum® Blue; AB Vista) was included in the relevant diets at 100 g per tonne or 500 FTU/kg phytase activity and, similarly, betaine HCl (Hi Beta″, 970 g/kg betaine hydrochloride; Rural Chemical Industries) was included in the diets at 2.75 g/kg.
# (§2) The parameters evaluated included growth performance (weight gains, feed intakes, feed conversion ratios; FCR) from 1 to 16, 17 to 37 and 1 to 37 days post-hatch, 1 to 37 days weight gain-corrected FCR, mortality/cull rates, percentage toe ash, nitrogen (N) excretion and nutrient utilisation. Nutrient utilisation included apparent metabolisable energy (AME), expressed as both MJ/kg and MJ/day, N retention and N-corrected AME (AMEn). Also, breast weights in absolute and relative (% yield) terms, abdominal fat pad weights and pH of gizzard contents were determined. However, for reasons of practical expediency, absolute breast weights were determined on a ‘bone-in’ basis from birds that had not been de-feathered and this approach inflates both the absolute weight and yield; nevertheless, the data remains indicative. The experimental data was obtained and calculated via standard procedures followed by the Poultry Research Foundation. While the various procedures are not detailed in this report the majority of them have been described in detail (Selle et al., 2003b) previously.
# The experimental data was statistically analysed as a 3×2×2 factorial array of dietary treatments. […]
# [2] = tested on: male Ross 308 chicks; assay: N excretion during total excreta collection period; conditions: for N excretion: total excreta collection period, phytase 500 FTU/kg, betaine 2.75 g/kg
# Method: as §1, §2
# The experimental data was statistically analysed as a 3×2×2 factorial array of dietary treatments. That is diet type (PC, NC1, NC2), without and with the addition of phytase, without and with the addition of betaine HCl. Each of the 12 dietary treatments was offered to 8 replicate cages of 6 birds or a total of 96 cages and 576 birds (male Ross 308 chicks). The IBM® SPSS® Statistics 20 program was used to analyse experimental data and the study complied with specific guidelines of the Animal Ethics Committee of Sydney University.
# [3] = tested on: male Ross 308 chicks; assay: Nutrient utilisation (AME, N retention, N-corrected AME); conditions: for Increase in AMEn on addition to diet: diet type x betaine HCl interaction; for AME / AME (energy intake) / AMEn / N retention: phytase 500 FTU/kg, betaine 2.75 g/kg
# Excerpt: Energy that is not metabolisable is ‘excreted energy’. Another way of defining ‘metabolisable energy’ is to refer to an ‘apparent metabolisable energy value’ or ‘AME value’. An ‘AME value’ is simply the gross energy of the feed consumed minus the gross energy contained in the faeces, urine, and gaseous products of digestion.
# [4] = main effect across diets, hydrochloride
# [5] = main effect across diets, listed as betaine HCl, hydrochloride
# [6] = main effect across diets, listed as betaine, hydrochloride
smiles,measurement,setting,value
"C[N+](C)(C)CC(=O)O [Betaine, betaine hydrochloride]",Toe ash,[1]; NC1 diets,11.15%
same,Toe ash,[1]; NC2 diets,12.29%
same,Toe ash,[1]; PC diets,11.99%
same,Toe ash,[1]; main effect across diets,12.07%
same,N excretion,[2]; NC1 diets,37.30 g/bird
same,Reduction of N excretion versus NC2 control diets,[2]; NC2 diets,7.03%
same,N excretion,[2]; NC2 diets,42.47 g/bird
same,N excretion,[2]; PC diets,40.34 g/bird
same,Reduction of N excretion,[2]; main effect,7.69%
same,N excretion,[2]; [4],38.79^a g/bird
same,N excretion,"[2]; main effect across diets, listed as Betaine HCl, hydrochloride",38.79 g/bird
same,N excretion,[2]; [5],38.79 g/bird
same,"AME, diet type x betaine interaction mean",[3]; NC1 diets,13.10 mJ/kg
same,"AMEn, diet type x betaine HCl interaction mean",[3]; NC1 diets,11.36 mJ/kg
same,Increase in AMEn on addition to diet,[3]; NC1 diets,1.01 mJ
same,Increase in AME on addition to diet,"[3]; NC1 diets, diet type x betaine interaction",0.78 mJ
same,Increase in AME relative to control diet,"[3]; NC1 diets, individual addition",0.44 mJ
same,AME,[3]; NC1 diets,12.77 MJ/kg DM
same,AME (energy intake),[3]; NC1 diets,1.868 mJ/day
same,AMEn,[3]; NC1 diets,11.25 MJ/kg DM
same,N retention,[3]; NC1 diets,52.14%
same,Increase in AMEn on addition to diet,[3]; NC2 diets,0.17 mJ
same,Decrease in AME on addition to diet,"[3]; NC2 diets, diet type x betaine interaction",0.08 mJ
same,AME,[3]; NC2 diets,12.86 MJ/kg DM
same,AME (energy intake),[3]; NC2 diets,2.061 mJ/day
same,AMEn,[3]; NC2 diets,11.43 MJ/kg DM
same,N retention,[3]; NC2 diets,49.25%
same,Increase in AMEn on addition to diet,[3]; PC diets,0.23 mJ
same,Increase in AME on addition to diet,"[3]; PC diets, diet type x betaine interaction",0.20 mJ
same,AME,[3]; PC diets,13.29 MJ/kg DM
same,AME (energy intake),[3]; PC diets,2.077 mJ/day
same,AMEn,[3]; PC diets,11.69 MJ/kg DM
same,N retention,[3]; PC diets,52.05%
same,"AME (energy intake), phytase x betaine interaction mean",[3]; across diet types,2.002 mJ/day
same,"AMEn, phytase x betaine HCl interaction mean",[3]; across diet types,11.46 mJ/kg
same,Increase in AMEn by betaine HCl,[3]; in the absence of phytase,0.20 mJ
same,Decrease in AME on betaine addition,"[3]; in the absence of phytase, across diet types",0.08 mJ
same,Increase in AMEn by betaine HCl,[3]; in the presence of phytase,0.74 mJ
same,Increase in AME on betaine addition,"[3]; in the presence of phytase, across diet types",0.67 mJ
same,Increase in AME,[3]; main effect,0.30 mJ/kg
same,N retention,[3]; main effect across diets,52.02%
same,AME,[3]; [4],13.33^b MJ/kg DM
same,AME (energy intake),[3]; [4],2.126 mJ/day
same,AMEn,[3]; [4],11.79^b MJ/kg DM
same,AMEn,[3]; [5],11.79 MJ/kg DM
same,AME,[3]; [6],13.33 MJ/kg DM
same,AME (energy intake),[3]; [6],did not influence
